Experiments:
Parameters in all cases: scale not given here
Details in all cases: preemergence
[1] = system: ABUTH Velvetleaf; test: Preemergence herbicidal evaluation, ABUTH; assay type: in vivo, Abutilon theophrasti, Medic.
Excerpt: (§1) The preemergence herbicidal activity of the test compounds of the present invention is exemplified by the following tests in which the seeds of a variety of monocotyledonous and dicotyledonous plants are separately mixed with potting soil and planted on top of approximately one inch of soil in separate pint cups. […] The treated cups are then placed on greenhouse benches, watered and cared for in accordance with conventional greenhouse procedures. From four to five weeks after treatment, the tests are terminated and each cup is examined and rated according to the rating system provided in Example 46.

[2] = system: AMBEL Ragweed, Common; test: Preemergence herbicidal evaluation, AMBEL; assay type: in vivo, Ambrosia artemisifolia, L.
Excerpt: as §1

[3] = system: CASOB Sicklepod; test: Preemergence herbicidal evaluation, CASOB; assay type: in vivo, Cassia obtusifolia, L.
Excerpt: as §1

[4] = system: CHEAL Lambsquarters, Common; test: Preemergence herbicidal evaluation, CHEAL; assay type: in vivo, Chenopodium album, L.
Excerpt: as §1

[5] = system: ECHOG Barnyardgrass; test: Preemergence herbicidal evaluation, ECHOG; assay type: in vivo, Echinochloa crus-galli, (L.) Beau
Excerpt: as §1

[6] = system: GALAP Galium; test: Preemergence herbicidal evaluation, GALAP; assay type: in vivo, Galium aparine
Excerpt: as §1

[7] = system: IPOHE Morningglory, Ivyleaf; test: Preemergence herbicidal evaluation, IPOHE; assay type: in vivo, Ipomoea hederacea, (L.) Jacq.
Excerpt: as §1

[8] = system: SETVI Foxtail, Green; test: Preemergence herbicidal evaluation, SETVI; assay type: in vivo, Setaria viridis, (L.) Beau
Excerpt: as §1

[9] = system: GLXMAW Soybean, Williams; test: Preemergence herbicidal evaluation, GLXMAW; assay type: in vivo, Glycine max, (L.) Merr. cv Williams
Excerpt: as §1

[10] = system: TRZAWR Wheat, Winter, cv Riband; test: Preemergence herbicidal evaluation, TRZAWR; assay type: in vivo, Triticum aestivum
Excerpt: as §1

[11] = system: ORYSAT Rice, Tebonnet; test: Preemergence herbicidal evaluation, ORYSAT; assay type: in vivo, Oryza sativa, (L.)
Excerpt: as §1

[12] = system: ZEAMX Corn, Field; test: Preemergence herbicidal evaluation, ZEAMX; assay type: in vivo, Zea mays, L. (Sammel-Bezeichnung)
Excerpt: as §1

`Cc1ccccc1-n1nnc2cc(F)c(-n3c(=O)cc(C(F)(F)F)n(C)c3=O)cc21` [Example 20] gave an ABUTH herbicidal rating ([1]; rate 0.016 kg/ha) of 0.0, an ABUTH herbicidal rating ([1]; rate 0.032 kg/ha) of 6.5 and an ABUTH herbicidal rating ([1]; rate 0.062 kg/ha) of 9.0. The ABUTH herbicidal rating ([1]; rate 0.125 kg/ha) was 9.0, the AMBEL herbicidal rating ([2]; rate 0.016 kg/ha) was 0.0 and the AMBEL herbicidal rating ([2]; rate 0.032 kg/ha) was 1.5. The AMBEL herbicidal rating ([2]; rate 0.062 kg/ha) was 2.5, the AMBEL herbicidal rating ([2]; rate 0.125 kg/ha) was 5.5 and the CASOB herbicidal rating ([3]; rate 0.016 kg/ha) was 0.0. The CASOB herbicidal rating ([3]; rate 0.032 kg/ha) was 0.0, the CASOB herbicidal rating ([3]; rate 0.062 kg/ha) was 0.0 and the CASOB herbicidal rating ([3]; rate 0.125 kg/ha) was 2.0. For the same compound, the CHEAL herbicidal rating ([4]; rate 0.016 kg/ha) was 9.0, the CHEAL herbicidal rating ([4]; rate 0.032 kg/ha) was 9.0 and the CHEAL herbicidal rating ([4]; rate 0.062 kg/ha) was 9.0. The CHEAL herbicidal rating ([4]; rate 0.125 kg/ha) was 9.0, the ECHCG herbicidal rating ([5]; rate 0.016 kg/ha) was 0.0 and the ECHCG herbicidal rating ([5]; rate 0.032 kg/ha) was 0.0. The ECHCG herbicidal rating ([5]; rate 0.062 kg/ha) was 3.5, the ECHCG herbicidal rating ([5]; rate 0.125 kg/ha) was 8.0 and the GALAP herbicidal rating ([6]; rate 0.016 kg/ha) was 0.0. The GALAP herbicidal rating ([6]; rate 0.032 kg/ha) was 0.0, the GALAP herbicidal rating ([6]; rate 0.062 kg/ha) was 0.0 and the GALAP herbicidal rating ([6]; rate 0.125 kg/ha) was 0.0. It also gave an IPOHE herbicidal rating ([7]; rate 0.016 kg/ha) of 0.0, an IPOHE herbicidal rating ([7]; rate 0.032 kg/ha) of 3.0 and an IPOHE herbicidal rating ([7]; rate 0.062 kg/ha) of 4.5. The IPOHE herbicidal rating ([7]; rate 0.125 kg/ha) was 4.5, the SETVI herbicidal rating ([8]; rate 0.016 kg/ha) was 0.0 and the SETVI herbicidal rating ([8]; rate 0.032 kg/ha) was 8.0. For the same compound, the SETVI herbicidal rating ([8]; rate 0.062 kg/ha) was 9.0, the SETVI herbicidal rating ([8]; rate 0.125 kg/ha) was 9.0 and the GLXMAW herbicidal rating ([9]; rate 0.016 kg/ha) was 0.0. It also gave a GLXMAW herbicidal rating ([9]; rate 0.032 kg/ha) of 0.5, a GLXMAW herbicidal rating ([9]; rate 0.062 kg/ha) of 1.5 and a GLXMAW herbicidal rating ([9]; rate 0.125 kg/ha) of 3.0. The TRZAWR herbicidal rating ([10]; rate 0.016 kg/ha) was 0.0, the TRZAWR herbicidal rating ([10]; rate 0.032 kg/ha) was 0.0 and the TRZAWR herbicidal rating ([10]; rate 0.062 kg/ha) was 4.0. It also gave a TRZAWR herbicidal rating ([10]; rate 0.125 kg/ha) of 6.0, an ORYSAT herbicidal rating ([11]; rate 0.016 kg/ha) of 0.0 and an ORYSAT herbicidal rating ([11]; rate 0.032 kg/ha) of 0.0. It also gave an ORYSAT herbicidal rating ([11]; rate 0.062 kg/ha) of 1.0, an ORYSAT herbicidal rating ([11]; rate 0.125 kg/ha) of 3.0 and a ZEAMX herbicidal rating ([12]; rate 0.016 kg/ha) of 0.0. For the same compound, the ZEAMX herbicidal rating ([12]; rate 0.032 kg/ha) was 1.0, the ZEAMX herbicidal rating ([12]; rate 0.062 kg/ha) was 4.5 and the ZEAMX herbicidal rating ([12]; rate 0.125 kg/ha) was 6.0.

— patent US20020111274A1, “1-alkyl-3-[1-(substituted phenyl) benzotriazol-6-yl] uracils” (BASF Aktiengesellschaft, priority 2000, published 2002)
